Where no end group is shown, it is not given here.
Test system: GH4C1 cells
Test: Rat pituitary assay for somatostatin receptor antagonists (cAMP content of GH4C1 cells)
Type: cell-based
Source text: This assay is designed to quantitate the activity of antagonists of somatostatin that interact directly at the somatostatin receptor. The assay facilitates discovery of agents which increase growth hormone secretion by modulating the inhibitory effects of somatostatin. As aforementioned, somatostatin (also abbreviated SRIF) inhibits GH secretion in the anterior pituitary by binding to a high affinity membrane-bound (and G-protein coupled) receptor which is coupled negatively to adenyl cyclase, thereby reducing intracellular levels of cAMP that would otherwise facilitate, for example, secretion/release of GH from cytoplasmic granules. […] The screen is designed to quantitate the ability of test agents to reverse SRIF's inhibition of the elevated intracellular cAMP levels produced by VIP. […]
In particular, cyclic AMP (cAMP) content of the pituitary cell line GH4C1 was used to differentiate somatostatin agonists from antagonists. […] This afforded a convenient way to conduct a homogenous immunoradiometric assay of cAMP content in cells lysed in situ, following incubation of the cells with test compound. cAMP content in the GH4C1 cells was determined according to the manufacturer's instructions, by comparison with standards at concentrations from 10 to 1,000 nM cAMP. […]

Molecule	effect on VIP-elevated cAMP content of the GH4C1 cells (10 nM somatostatin 14 in the presence of 100 nM VIP)	effect on cAMP content of the GH4C1 cells (100 nM VIP)
C[C@H](N)C(=O)NCC(=O)N[C@H]1CSSC[C@@H](C(=O)O)NC(=O)[C@H](CO)NC(=O)[C@H]([C@@H](C)O)NC(=O)[C@H](Cc2ccccc2)NC(=O)[C@H]([C@@H](C)O)NC(=O)[C@H](CCCCN)NC(=O)[C@H](Cc2c[nH]c3ccccc23)NC(=O)[C@H](Cc2ccccc2)NC(=O)[C@H](Cc2ccccc2)NC(=O)[C@H](CC(N)=O)NC(=O)[C@H](CCCCN)NC1=O [somatostatin, somatostatin 14]	partial inhibition	–
vasoactive intestinal peptide (HSDAVFTDNYTRLRKQMAVKKYLNSILN; ends and bridges not checked; UniProt P01282 125-152, looked up) [VIP]	–	increased cAMP content

— patent US6696418B1, “Somatostatin antagonists and agonists that act at the SST subtype 2 receptor” (Pfizer Inc., priority 1999, dated 2004)
